According to EP4603105A1, “PHARMACEUTICAL COMPOSITION CONTAINING CYCLIC COMPOUND HAVING SELECTIVE KRAS INHIBITORY EFFECT AGAINST HRAS AND NRAS” (CHUGAI SEIYAKU KABUSHIKI KAISHA, priority 2022, dated 2024):
pIC50, pKd: −log10 of the molar value. Where a SMILES comes first, the peptide text is derived from it. Bridges are numbered along the chain shown (N, C = ends). [ ]: non-standard residue; d: D form. The star is where a group is joined. hPhe(3-Cl-4-CF3) = N[C@@H](CCc1ccc(C(F)(F)F)c(Cl)c1)C(=O)O; NPrPhe(4-CF3) = CCCN[C@@H](Cc1ccc(C(F)(F)F)cc1)C(=O)O; NMeGly(cPent) = CN[C@H](C(=O)O)C1CCCC1; NMeD = CN[C@@H](CC(=O)O)C(=O)O; NMeNva = CCC[C@H](NC)C(=O)O; Morpholide = C1CN(*)CCO1; Ac5c = NC1(C(=O)O)CCCC1; Sar = CNCC(=O)O

Tests used:
[1] = target: GDP-bound KRAS wild-type protein (Homo sapiens, UniProt P01116); experiment: Binding to KRAS by surface plasmon resonance (SPR), dissociation constant KD; conditions: Single Cycle Kinetics
GDP-bound KRAS wild-type protein, sequence (P01116 1-188 isoform P01116-2): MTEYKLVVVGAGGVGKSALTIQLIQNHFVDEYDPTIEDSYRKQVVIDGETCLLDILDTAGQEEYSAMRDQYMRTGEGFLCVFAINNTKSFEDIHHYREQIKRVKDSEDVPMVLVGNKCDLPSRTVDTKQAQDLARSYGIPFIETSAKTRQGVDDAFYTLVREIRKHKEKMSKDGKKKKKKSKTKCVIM
Description: Surface plasmon resonance was used to analyze the binding affinity of compounds for KRAS, NRAS, and HRAS. The apparatus used was Biacore 8K, 8K+, or T200 (GE Healthcare), and the running buffer used was HBS (10 mM HEPES-NaOH, 150 mM NaCl, pH 7.4) containing 1 mM DTT, 10 mM MgCl2, 0.01% Tween 20, 10 µM GDP, and 4% DMSO.
Biotinylated Avi-tag fusion KRAS, NRAS, and HRAS proteins were expressed in E. coli BL21 (DE3) strains, and after cells were homogenized, they were purified using Streptavidin Mutein Matrix and Superdex 75. After purification, GDP-loaded KRAS, NRAS, and HRAS proteins were immobilized on the surface of Sensor Chip CAP (Cytiva) coated with Biotin CAPture Reagent in an immobilization amount of about 100 to 300 RU. Binding of each compound was evaluated by the Single Cycle Kinetics method, and a running buffer or a compound solution was added to the RAS protein non-immobilized surface and the immobilized surface to obtain a binding response. The flow rate was set to 100 µL/min, and in the compound-adding cycle, compound solutions having different concentrations were intermittently added for 75 seconds each, starting from a low concentration. […] In the blank cycle, a running buffer was intermittently added and not the compound solution. The Biotin CAPture Reagent and RAS proteins were immobilized for each cycle, and at the end of each cycle, the sensor chip was regenerated by the regeneration solution appended to the Biotin CAPture Kit (Cytiva). Measurement was carried out at 30°C.
The resulting sensorgram was subjected to curve fitting based on a 1:1 binding model on Biacore Insight Evaluation Software or T200 Evaluation Software, and thereby the dissociation constant KD of each compound with respect to KRAS, NRAS, and HRAS was determined. […] Blank indicates a compound from which the KD value with respect to NRAS or HRAS was not obtained.

[2] = test system: human lung cancer strain NCI-H441; type: cell-based
How it was run: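 Proliferation was scored by […] measured after the reagent was added to cultures kept at 37°C in 5% carbon dioxide.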

[3] = target: GDP-bound NRAS wild-type protein (Homo sapiens, UniProt P01111); experiment: Binding to NRAS by surface plasmon resonance (SPR), KD and KD ratio to KRAS
GDP-bound NRAS wild-type protein, sequence (P01111 whole entry): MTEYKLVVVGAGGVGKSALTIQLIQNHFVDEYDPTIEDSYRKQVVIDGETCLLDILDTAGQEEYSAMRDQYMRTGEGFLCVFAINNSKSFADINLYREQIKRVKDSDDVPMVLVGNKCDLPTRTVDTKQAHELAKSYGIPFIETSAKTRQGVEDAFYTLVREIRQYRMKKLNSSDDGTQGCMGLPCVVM
How it was run: (§1)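 Single-cycle kinetics on GDP-loaded biotin-Avi RAS captured to ~100–300 RU; 75 s ascending injections, 100 µL/min, 30°C. HBS pH 7.4 + 10 mM MgCl2/10 µM GDP/4% DMSO. 1:1 fit, KD.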

HRAS wild-type protein = HRAS wild-type protein (Homo sapiens, UniProt P01112); experiment: Binding to HRAS by surface plasmon resonance (SPR), KD and KD ratio to KRAS
HRAS wild-type protein, sequence (P01112 whole entry): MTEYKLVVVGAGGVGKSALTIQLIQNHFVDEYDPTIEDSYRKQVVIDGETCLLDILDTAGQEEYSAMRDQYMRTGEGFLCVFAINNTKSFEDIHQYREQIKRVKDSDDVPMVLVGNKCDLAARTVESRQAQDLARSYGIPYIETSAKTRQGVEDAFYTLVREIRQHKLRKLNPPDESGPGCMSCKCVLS
How it was run: as §1

[4] = ratio of KD value for GDP-bound NRAS wild-type protein to KD value for KRAS (SPR)
[5] = ratio of KD value for HRAS wild-type protein to KD value for KRAS (SPR)
[6] = ratio of KD for GDP-bound NRAS wild-type protein to KD for KRAS
[7] = ratio of KD for HRAS wild-type protein to KD for KRAS

## CC[C@H](C)[C@@H]1NC(=O)[C@H](CC(C)C)N(C)C(=O)C[C@@H](C(=O)N2CCOCC2)N(C)C(=O)[C@H](C2CCCC2)N(C)C(=O)C2(CCC2)NC(=O)[C@@H]2[C@@H](O)CCN2C(=O)[C@H](CCc2cc(F)c(C(F)(F)F)c(F)c2)NC(=O)CN(C)C(=O)[C@H](Cc2ccc(C(F)(F)F)cc2)N2CCCCC[C@@H](C2=O)N(C)C(=O)CN(C)C1=O [PP0872]
[1]
  pKd: 8.77
[2]
  pIC50: 5.59

## CC[C@H](C)[C@@H]1NC(=O)[C@H](CC(C)C)N(C)C(=O)C[C@@H](C(=O)N2CCOCC2)N(C)C(=O)[C@H](C2CCCC2)N(C)C(=O)C2(CCC2)NC(=O)[C@@H]2C[C@@H](O)CN2C(=O)[C@H](CCc2cc(F)c(C(F)(F)F)c(F)c2)NC(=O)CN(C)C(=O)[C@H](Cc2ccc(C(F)(F)F)cc2)N2CCCCC[C@@H](C2=O)N(C)C(=O)CN(C)C1=O [PP0871]
[1]
  pKd: 9.40
[2]
  pIC50: 6.36

## CC[C@H](C)[C@@H]1NC(=O)[C@H](CC(F)F)N(C)C(=O)C[C@@H](C(=O)N(C)CC)N(C)C(=O)[C@H](C2CCCC2)N(C)C(=O)C2(CC(C)(C)C2)NC(=O)[C@@H]2C[C@@H](C)CN2C(=O)[C@H](CCc2ccc(C(F)(F)F)c(Cl)c2)NC(=O)CN(C)C(=O)[C@H](Cc2ccc(C)cc2)N2CC/C=C\C[C@@H](C2=O)N(C)C(=O)CN(C)C1=O [PP1837]
[3]; [4]
  NRAS /KRAS: A (a compound having 10 or more and less than 20 is denoted as A)
[2]
  pIC50: 7.81
HRAS wild-type protein; [5]
  HRAS /KRAS: A (a compound having 10 or more and less than 20 is denoted as A)

## CC[C@H](C)[C@@H]1NC(=O)[C@H](COC)N(C)C(=O)C[C@@H](C(=O)N2CCOCC2)N(C)C(=O)[C@H](C2CCCC2)N(C)C(=O)C2(CCC2)NC(=O)[C@@H]2CC(F)(F)CN2C(=O)[C@H](CCc2cc(F)c(C(F)(F)F)c(F)c2)NC(=O)CN(C)C(=O)[C@H](Cc2ccc(C(F)(F)F)cc2)N2CCCCC[C@@H](C2=O)N(C)C(=O)CNC1=O [PP0861]
[3]; [6]
  NRAS /KRAS: B (a compound having 3 or more and less than 10 is denoted as B)
[2]
  pIC50: 7.68
HRAS wild-type protein; [7]
  HRAS /KRAS: B (a compound having 3 or more and less than 10 is denoted as B)

## CCO[C@@H]1C[C@H]2C(=O)NC3(CCC3)C(=O)N(C)[C@@H](C3CCCC3)C(=O)N(C)[C@H](C(=O)N(C)C)CC(=O)N(C)[C@@H](CC)C(=O)N[C@@H]([C@@H](C)CC)C(=O)N(C)CC(=O)N(C)[C@H]3CC/C=C(/C)CN(C3=O)[C@@H](Cc3ccc(C(F)(F)F)cc3)C(=O)N(C)CC(=O)N[C@@H](CCc3cc(F)c(C(F)(F)F)c(F)c3)C(=O)N2C1 [PP1334]
[3]; ratio of KD with respect to GDP-bound NRAS wild-type protein to KD with respect to KRAS
  NRAS /KRAS: B (a compound having 3 or more and less than 10 is denoted as B)
[2]
  pIC50: 6.01
HRAS wild-type protein; ratio of KD with respect to HRAS wild-type protein to KD with respect to KRAS
  HRAS /KRAS: B (a compound having 3 or more and less than 10 is denoted as B)

## CCC[C@H]1C(=O)N[C@@H]([C@@H](C)CC)C(=O)N(C)CC(=O)N(C)CC(=O)N(CCC)[C@@H](Cc2ccc(C(F)(F)F)cc2)C(=O)N(C)CC(=O)N[C@@H](CCc2ccc(C(F)(F)F)c(Cl)c2)C(=O)N2CCC[C@H]2C(=O)NC2(CCCC2)C(=O)N(C)[C@@H](C2CCCC2)C(=O)N(C)[C@H](C(=O)N2CCOCC2)CC(=O)N1C [PP0189] ([NMeNva]I[Sar][Sar][NPrPhe(4-CF3)][Sar][hPhe(3-Cl-4-CF3)]P[Ac5c][NMeGly(cPent)][NMeD]-Morpholide; lactam N-11)
[3]; [6]
  NRAS /KRAS: B (a compound having 3 or more and less than 10 is denoted as B)
[2]
  pIC50: 8.52
HRAS wild-type protein; [7]
  HRAS /KRAS: C (A compound having a KD ratio of 0.1 or more and less than 3 is denoted as C)

## CCO[C@@H]1C[C@H]2C(=O)NC3(CCC3)C(=O)N(C)[C@@H](C3CCCC3)C(=O)N(C)[C@H](CC)CC(=O)N(C)[C@@H](CC3CC3)C(=O)N[C@@H]([C@@H](C)CC)C(=O)N(C)CC(=O)N(C)[C@H]3C/C=C\CCN(C3=O)C(Cc3ccc(C(F)(F)F)cc3)C(=O)N(C)CC(=O)N[C@@H](CCc3cc(F)c(C(F)(F)F)c(F)c3)C(=O)N2C1 (stereo partly shown) [PP1631]
[3]; [4]
  NRAS /KRAS: A (a compound having 10 or more and less than 20 is denoted as A)
[2]
  pIC50: 7.75
HRAS wild-type protein; [5]
  HRAS /KRAS: B (a compound having 3 or more and less than 10 is denoted as B)
